What all share (format): cell-based, Human Rhinoviruses
Common to all, as to conditions: count after 3 days

Assay [1] concerns Rhinovirus H Strain. The experiment in a line: Plaques assay on cell mono-layers, Rhinovirus H strain, Ohio-HeLa. On the procedure: (§1) The activity of the above compounds was evaluated in a plaque inhibition assay carried out on mono-layers of kidney cells from Rhesus monkey and from WI38 and Ohio-HeLa human cells, suitable for the propagation of Rhinoviruses M and H strains respectively. In this assay, the addition to the culture medium of an agent able to impede the viral penetration in the cells reduces the formation of microplaques compared with an untreated control culture. Therefore, the effectiveness of the test compound can be determined by counting the microplaques in treated and non-treated cultures after exposure to the virus.
(§2) • 1. prepare confluent kidney cell mono-layers from Rhesus monkeys and from human cell lines (WI 38, MRC-5 and Ohio-Hela cells) in 6.75 cm Ø Petri dishes; • 2. aspirate the growth medium; • 3. wash each dish with 10 ml of culture medium (serum-free growth medium), Earle's saline solution—lactoalbumine hydrolysate and incubate at 33° C. for 60′; • 4. aspirate the liquid; • 5. prepare serial 1:10 viral dilutions (Rhinovirus-strain M and Rhinovirus-strain H) in Earle's saline solution—lactoalbumine hydrolysate and inoculate each dish with 0.2 ml volumes of viral dilution. Each viral dilution is inoculated in duplicate. • 6. Prepare analogous serial viral dilutions (as in 5) in Earle's saline solution—lactoalbumine hydrolysate, added with the anti-viral test compound at the desired concentration. • 7. Prepare Earle's saline solution—lactoalbumine hydrolysate added with the test anti-viral compound at the desired concentration as the control (one control for each test compound). • 8. incubate the infected mono-layers at 33° C. for 60′, gently rocking the dishes at 15′ intervals in order to evenly distribute the inoculum; • 9. place the dishes on a flat surface; • 10. thoroughly add 10 ml of nutritive agar in Earle's saline solution—calf serum, equilibrated at 44° C., to each dish and allow to harden. […]

Assay [2] concerns Rhinovirus M Strain. The experiment in a line: Plaques assay on cell mono-layers, Rhinovirus M strain, MKC-5. On the procedure: as §1, §2
Assay [3] relates to Rhinovirus H Strain. Put plainly: Plaques assay on cell mono-layers, Rhinovirus H strain, WI38. The method, then: as §1
• 1. prepare confluent kidney cell mono-layers from Rhesus monkeys and from human cell lines (WI 38, MRC-5 and Ohio-Hela cells) in 6.75 cm Ø Petri dishes; • 2. aspirate the growth medium; • 3. wash each dish with 10 ml of culture medium (serum-free growth medium), Earle's saline solution—lactoalbumine hydrolysate and incubate at 33° C. for 60′; • 4. aspirate the liquid; • 5. prepare serial 1:10 viral dilutions (Rhinovirus-strain M and Rhinovirus-strain H) in Earle's saline solution—lactoalbumine hydrolysate and inoculate each dish with 0.2 ml volumes of viral dilution. Each viral dilution is inoculated in duplicate. • 6. […]

Setting [4] is: dilution of inoculated virus 10^−3, same molar concentration of a 12.5 γ/ml xenaldial solution.
[5] abbreviates: dilution of inoculated virus 10^−4, same molar concentration of a 12.5 γ/ml xenaldial solution.
Where [6] appears, read: dilution of inoculated virus 10^−5, same molar concentration of a 12.5 γ/ml xenaldial solution.

For the compound `CCOC(Nc1ccc(C(=O)O)cc1)C(=O)c1ccc(-c2ccccc2)cc1` (stereo not drawn) [Xenalamine, p-(α-ethoxy-p-phenyl-phenacylamino)-benzoic acid, reference compound], the “n° of plaques in 2 dishes” value worked out at 2 in assay [1] (setting [4]); 1 in assay [1] (setting [5]); 1 in assay [1] (setting [6]); 4 in assay [2] (setting [4]); 2 in assay [2] (setting [5]); 1 in assay [2] (setting [6]). Further, the “n° of plaques in 2 dishes” value in assay [3] (setting [4]) is listed as 3; in assay [3] (setting [5]) it was 1.

For the origin of these results see patent US20050222264A1, “Anti-rhinovirus active agents” (UNIHART CORPORATION, priority 2002, published 2005).
